Laboratory results from patent publication US20050244359A1, “Topical regulation of triglyceride metabolism” (priority 2004, published 2005).
Values joined by “and” are separate entries in the source; they are usually repeats but may differ in a detail not shown here. Equal entries are not always repeated.

System: epidermal equivalents
Assay: Triglyceride production in living skin samples (epidermal equivalents, MatTek), HPTLC analysis
Type: cell-based
Settings: for net intensity (HPTLC, triglycerides): about 0.1 percent fatty acid, epidermal equivalents cultured for three days, triglycerides extracted in chloroform/methanol (2:1)
Method: A set of living skin samples, epidermal equivalents, obtained from MatTek, is tested with a sample of about 0.1 percent palmitoleic acid and about 0.1 percent oleic acid. A media is prepared of a transwell membrane at the air/liquid interface and is cultured for three days. At the end of the incubation period, each skin square is homogenized and its triglycerides extracted in chloroform/methanol (2:1). This is followed by HPTLC analysis. […] After one day of application it is surprising to find the increase in triglyceride concentration in the epidermal equivalents treated with palmitoleic acid. […] The net intensity of oleic acid is 859. In contrast, palmitoleic acid has a net intensity of 1324 and 1212, an average of 1268 net intensity.

SMILES | net intensity (HPTLC, triglycerides) | effect on triglyceride production (in words) (epidermal equivalents, HPTLC) | average net intensity (HPTLC, triglycerides) (about 0.1 percent, average of two values) | increase in triglyceride production (about 0.1 percent, epidermal equivalents, HPTLC)
CCCCCCCC/C=C\CCCCCCCC(=O)O [oleic acid, reference compound] | 859 | little effect | – | –
CCCCCC/C=C\CCCCCCCC(=O)O [palmitoleic acid] | 1324 and 1212 | time and dose-dependent increase in triglyceride production | 1268 | ~400%
